The subject of test [1] is E. coli DH5a harboring VIM-2. Description: Broth microdilution MIC, engineered E. coli expressing VIM-2. The format is cell-based. The conditions noted are these: Escherichia coli, read-out: MIC, β-lactamase VIM. On the procedure:
(§1) To determine the ability of test compounds to potentiate the inhibition of the growth of bacterial strains, classic cell based broth microdilution MIC assays were employed. MIC assays are performed according to CLSI methods except where otherwise noted (CLSI, 2011 and CLSI, 2009). The reference strain S. aureus ATCC 29213 and the hyper-permeable E. coli 901C were used to determine the ability of the PBP compounds to inhibit bacterial growth. Briefly, cryo-preserved bacterial cultures of clinical strains are streaked for isolation on appropriate agar medium, in this case Mueller Hinton II agar. Following incubation to allow formation of colonies these plates are sealed with parafilm and stored refrigerated for up to two weeks. For preparation of assay inocula and to ensure low variability, at least 5 colonies are picked from the agar plates with an inoculating loop and aseptically transferred to a culture tube containing 3 mL of Mueller-Hinton Broth (supplemented with divalent cations to required levels based on Manufacturers' certification). The broth culture is grown for 3-5 hours at 37° C. with shaking at 200 rpm. Meanwhile, 2-fold serial dilutions of test compounds are conducted in a 96 well plate with a final volume of 75 μL per well at 2-fold the final desired concentration. After the dilution plates are set up the growing cultures are then diluted in a cuvette containing MH II broth and the optical density is measured at 600 nm. Inocula are diluted such that 75 μL of this culture in Mueller-Hinton Broth results in a starting bacterial concentration of 5×10^5 CFU/mL when added to the dilution plates. The plates are incubated 16-20 hours at 37° C. The MIC is read visually as the lowest concentration well with no bacterial growth.
(§2) To determine if test compounds were affected by various known β-lactamases, the inhibition of the growth of engineered strains of Escherichia coli harboring select single β-lactamases were tested. […]
(In broth dilution the organism is exposed to a series of concentrations in liquid medium.)

The subject of test [2] is E. coli DH5a harboring OXA-48. Put plainly: Broth microdilution MIC, engineered E. coli expressing OXA-48. Type of test: cell-based. The settings on record: Escherichia coli, read-out: MIC, β-lactamase OXA. On the procedure:
as §1, §2

As usually defined, the MIC is the least concentration at which growth counts as inhibited. With `Nc1nc(/C(=N/O)C(=O)N[C@H]2Cc3cccc(C(=O)O)c3OB2O)cs1` [Example 6, (R,Z)-3-(2-(2-aminothiazol-4-yl)-2-(hydroxyimino)acetamido)-2-hydroxy-3,4-dihydro-2H-benzo[e][1,2]oxaborinine-8-carboxylic Acid], the MIC in test [1] and in test [2] was 16 µg/mL each time.

The values above are taken from US11267826B2, “Penicillin-binding protein inhibitors” (priority 2017, dated 2022).
